Molecular target: recombinant human LRRK2 (catalytic domain only [amino acids 970-2527], GST-tagged) (Homo sapiens (Human), UniProt Q5S007)
Assay: LRRK2 Enzymatic Assay
Format: biochemical
Conditions: LRRKtide substrate, [32P]-ATP
Summary of the method: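 GST-tagged catalytic domain (aa 970-2527) at 30 nM with 20 μM LRRKtide in HEPES pH 7.5/MgCl2 buffer, 1% DMSO; compounds (10 μM to 0.5 nM) preincubated 20 min, then [32P]-ATP added for 2 h at room temperature. P81 phosphocellulose capture; activity as % of vehicle, IC50 by curve fit.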

Chain of recombinant human LRRK2 (catalytic domain only [amino acids 970-2527], GST-tagged) (Q5S007 970-2527): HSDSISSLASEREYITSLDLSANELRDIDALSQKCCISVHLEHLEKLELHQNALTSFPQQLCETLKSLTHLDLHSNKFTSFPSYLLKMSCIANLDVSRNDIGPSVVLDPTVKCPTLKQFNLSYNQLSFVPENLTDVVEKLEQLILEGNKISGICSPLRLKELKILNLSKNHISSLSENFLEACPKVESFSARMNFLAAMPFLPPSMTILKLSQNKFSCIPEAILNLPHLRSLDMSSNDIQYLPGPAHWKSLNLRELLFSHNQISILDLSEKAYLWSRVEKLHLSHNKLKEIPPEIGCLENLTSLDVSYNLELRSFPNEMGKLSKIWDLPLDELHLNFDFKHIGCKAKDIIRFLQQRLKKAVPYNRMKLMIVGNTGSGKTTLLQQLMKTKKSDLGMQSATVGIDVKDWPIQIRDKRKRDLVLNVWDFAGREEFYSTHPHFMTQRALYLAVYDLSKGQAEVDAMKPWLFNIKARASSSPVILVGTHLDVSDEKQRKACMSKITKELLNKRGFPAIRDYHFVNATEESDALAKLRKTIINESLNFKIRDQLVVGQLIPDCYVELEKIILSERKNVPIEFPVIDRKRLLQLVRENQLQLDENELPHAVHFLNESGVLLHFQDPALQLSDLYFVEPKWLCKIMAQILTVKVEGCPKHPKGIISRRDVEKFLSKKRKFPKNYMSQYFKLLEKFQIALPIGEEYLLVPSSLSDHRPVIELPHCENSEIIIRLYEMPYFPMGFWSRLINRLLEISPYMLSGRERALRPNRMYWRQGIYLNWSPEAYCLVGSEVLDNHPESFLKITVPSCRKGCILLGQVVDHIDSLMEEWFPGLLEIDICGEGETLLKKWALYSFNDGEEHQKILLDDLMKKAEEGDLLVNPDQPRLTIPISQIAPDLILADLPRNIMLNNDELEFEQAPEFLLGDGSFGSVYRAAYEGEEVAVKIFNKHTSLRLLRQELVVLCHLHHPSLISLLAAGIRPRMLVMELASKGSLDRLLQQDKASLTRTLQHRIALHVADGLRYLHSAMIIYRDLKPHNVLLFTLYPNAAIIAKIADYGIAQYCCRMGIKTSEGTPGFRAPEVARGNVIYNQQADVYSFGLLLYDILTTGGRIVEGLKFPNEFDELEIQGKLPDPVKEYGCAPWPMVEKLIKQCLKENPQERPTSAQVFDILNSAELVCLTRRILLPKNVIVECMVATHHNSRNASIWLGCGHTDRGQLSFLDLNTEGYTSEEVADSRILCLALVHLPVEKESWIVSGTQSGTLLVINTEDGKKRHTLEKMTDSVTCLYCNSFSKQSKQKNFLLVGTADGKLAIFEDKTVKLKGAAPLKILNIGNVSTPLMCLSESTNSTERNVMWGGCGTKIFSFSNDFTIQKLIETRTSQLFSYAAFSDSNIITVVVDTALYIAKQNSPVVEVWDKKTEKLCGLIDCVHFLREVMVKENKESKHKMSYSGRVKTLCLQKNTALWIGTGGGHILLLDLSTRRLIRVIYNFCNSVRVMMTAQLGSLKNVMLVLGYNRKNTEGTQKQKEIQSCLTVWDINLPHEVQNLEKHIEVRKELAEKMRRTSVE

SMILES | IC50
Cc1nn(C(C)(C)C#N)cc1Nc1ncc(F)c(OCC2CC(C#N)C2)n1 (single isomer, unassigned) [Example 291, 3-(((2-((1-(2-cyanopropan-2-yl)-3-methyl-1H-pyrazol-4-yl)amino)-5-fluoropyrimidin-4-yl)oxy)methyl)cyclobutane-1-carbonitrile] | < 50 nM
OC12CCC(COc3ccnc(Nc4ccc(N5CCOCC5)cc4)n3)(CC1)CC2 [Example 140, 4-(((2-((4-morpholinophenyl)amino)pyrimidin-4-yl)oxy)methyl)bicyclo[2.2.2]octan-1-ol] | > 400 nM
Cc1nn(C(C)(C)C#N)cc1Nc1ncc(F)c(OCC23CCC(O)(CC2)CC3)n1 [Example 257, 2-(4-((5-fluoro-4-((4-hydroxybicyclo[2.2.2]octan-1-yl)methoxy)pyrimidin-2-yl)amino)-3-methyl-1H-pyrazol-1-yl)-2-methylpropanenitrile] | 50 to 200 nM
CC(=O)NC1CCC(C)(COc2ccnc(Nc3ccc(N4CCOCC4)cc3)n2)CC1 (stereo not shown) [Example 91, N-(4-methyl-4-(((2-((4-morpholinophenyl)amino)pyrimidin-4-yl)oxy)methyl)cyclo-hexyl)acetamide] | > 400 nM
CN[C@H]1CC[C@H](COc2ccnc(Nc3cnn(C(C)C)c3)n2)CC1 [Example 33] | > 400 nM
CC(C)OC1CCC(COc2nc(Nc3ccc(N4C[C@@H](C)O[C@@H](C)C4)cc3)ncc2F)CC1 (mixture of isomers) [Example 279, N-(4-((2S,6R)-2,6-dimethylmorpholino)phenyl)-5-fluoro-4-((4-isopropoxycyclohexyl)methoxy)pyrimidin-2-amine] | 200 to 400 nM
FC(F)CN[C@H]1CC[C@H](COc2ccnc(Nc3ccc(N4CCOCC4)cc3)n2)CC1 [Example 103, 4-(((1R,4R)-4-((2,2-difluoro-ethyl)amino)cyclohexyl)methoxy)-N-(4-morpholino-phenyl) pyrimidin-2-amine] | < 50 nM
COc1cnc(Nc2ccc(N3CCOCC3)cc2)nc1OCC1CCC(F)(F)CC1 [Example 156, 4-((4,4-difluorocyclohexyl)methoxy)-5-methoxy-N-(4-morpholinophenyl)pyrimidin-2-amine] | 50 to 200 nM
C[C@@H]1CN(c2ccc(Nc3ncc(F)c(OC[C@H]4CC[C@H](OC(F)F)CC4)n3)cc2)C[C@H](C)O1 [Example 285, 4-(((1R,4R)-4-(difluoromethoxy)cyclohexyl)methoxy)-N-(4-((2S,6R)-2,6-dimethylmorpholino)phenyl)-5-fluoropyrimidin-2-amine] | 200 to 400 nM
Cc1nn(C(C)(C)C#N)cc1Nc1ncc(F)c(OCC2(F)CCN(C)CC2)n1 [Example 66, 2-(4-((5-fluoro-4-((4-fluoro-1-methylpiperidin-4-yl)methoxy)pyrimidin-2-yl)amino)-3-methyl-1H-pyrazol-1-yl)-2-methylpropanenitrile] | > 400 nM
COc1cnc(Nc2ccc(N3CCOCC3)cc2)nc1OC[C@H]1CC[C@H](N)CC1 [Example 8, 4-(((1R,4R)-4-aminocyclohexyl)methoxy)-5-methoxy-N-(4-morpholinophenyl) pyrimidin-2-amine] | < 50 nM
N[C@H]1CC[C@@H](COc2ccnc(Nc3ccc(N4CCOCC4)cc3)n2)C1 [Example 15, 4-(((1R,3S)-3-aminocyclopentyl)methoxy)-N-(4-morpholinophenyl) pyrimidin-2-amine] | 50 to 200 nM

The remaining lines, values ahead:

IC50 | SMILES
< 50 nM | Cc1nn(C(C)(C)C#N)cc1Nc1ncc(F)c(OC[C@H]2CC[C@H](O)CC2)n1 [Example 125, 2-(4-((5-fluoro-4-(((1R,4R)-4-hydroxycyclohexyl)methoxy)pyrimidin-2-yl)amino)-3-methyl-1H-pyrazol-1-yl)-2-methylpropanenitrile]
< 50 nM | CC(=O)N[C@H]1CC[C@H](COc2nc(Nc3cn(C4CC4)nc3C)ncc2F)CC1 [Example 196, N-((1R,4R)-4-(((2-((1-cyclopropyl-3-methyl-1H-pyrazol-4-yl)amino)-5-fluoropyrimidin-4-yl)oxy)methyl)cyclo-hexyl)acetamide]
< 50 nM | CNC[C@H]1CC[C@H](COc2nc(Nc3cnn(C4CC(C#N)C4)c3C)ncc2Cl)CC1 (stereo partly drawn) [Example 50, 3-(4-((5-chloro-4-(((1R,4R)-4-((methylamino)methyl)cyclohexyl)methoxy)pyrimidin-2-yl)amino)-5-methyl-1H-pyrazol-1-yl)cyclobutane-1-carbonitrile]
< 50 nM | CC(=O)N[C@H]1CC[C@H](COc2nc(Nc3cnn(C4CCOCC4)c3Cl)ncc2F)CC1 [Example 206, N-((1R,4R)-4-(((2-((5-chloro-1-(tetrahydro-2H-pyran-4-yl)-1H-pyrazol-4-yl)amino)-5-fluoropyrimidin-4-yl)oxy)methyl)cyclo-hexyl)acetamide]
< 50 nM | Cc1nn(C2CC(C#N)C2)cc1Nc1ncc(Cl)c(OCC2CCC(O)CC2)n1 (stereo not shown) [Example 122, 3-(4-((5-chloro-4-((4-hydroxycyclohexyl)methoxy)pyrimidin-2-yl)amino)-3-methyl-1H-pyrazol-1-yl)cyclobutane-1-carbonitrile]
50 to 200 nM | Fc1cnc(Nc2ccc(N3CCOCC3)cc2)nc1OCC1CCC(F)(F)CC1 [Example 268, 4-((4,4-difluorocyclohexyl)methoxy)-5-fluoro-N-(4-morpholinophenyl)pyrimidin-2-amine]
< 50 nM | Cc1nn(C(C)C)cc1Nc1ncc(F)c(OC[C@H]2CC[C@H](NC(=O)C(F)(F)F)CC2)n1 [Example 211, 2,2,2-trifluoro-N-((1R,4R)-4-(((5-fluoro-2-((1-isopropyl-3-methyl-1H-pyrazol-4-yl)amino)pyrimidin-4-yl)oxy)methyl)cyclohexyl) acetamide]
< 50 nM | Cc1c(Nc2ncc(Cl)c(OCC3CC(F)(F)C3)n2)cnn1C1CC(C#N)C1 (stereo not shown) [Example 159, 3-(4-((5-chloro-4-((3,3-difluorocyclobutyl)methoxy)pyrimidin-2-yl)amino)-5-methyl-1H-pyrazol-1-yl)cyclobutane-1-carbonitrile]
< 50 nM | COCCn1cc(Nc2ncc(F)c(OC[C@H]3CC[C@H](NC(C)=O)CC3)n2)cn1 [Example 191, N-((1R,4R)-4-(((5-fluoro-2-((1-(2-methoxyethyl)-1H-pyrazol-4-yl)amino)pyrimidin-4-yl)oxy)methyl)cyclo-hexyl)acetamide]
50 to 200 nM | CC(C)n1cc(Nc2ncc(F)c(OC[C@H]3CC[C@H](C(C)(C)O)CC3)n2)cn1 [Example 255, 2-((1R,4R)-4-(((5-fluoro-2-((1-isopropyl-1H-pyrazol-4-yl)amino)pyrimidin-4-yl)oxy)methyl)cyclohexyl)propan-2-ol]
< 50 nM | CC(=O)N[C@H]1CC[C@H](COc2nc(Nc3ccc(N4CCOCC4)cc3)ncc2Cl)CC1 [Example 80, N-((1R,4R)-4-(((5-chloro-2-((4-morpholinophenyl)amino)pyrimidin-4-yl)oxy)methyl)cyclo-hexyl)acetamide]
> 400 nM | Cc1nc(Nc2ccc(N3CCOCC3)cc2)nc(OC[C@H]2CC[C@H](O)CC2)c1F [Example 265, (1R,4R)-4-(((5-fluoro-6-methyl-2-((4-morpholinophenyl)amino)pyrimidin-4-yl)oxy)methyl)cyclohexan-1-ol]
< 50 nM | CC(=O)N[C@H]1CC[C@H](COc2nc(Nc3cnn(C(C)(C)C#N)c3C)ncc2F)CC1 [Example 199, N-((1R,4R)-4-(((2-((1-(2-cyanopropan-2-yl)-5-methyl-1H-pyrazol-4-yl)amino)-5-fluoropyrimidin-4-yl)oxy)methyl)cyclo-hexyl)acetamide]
